Molecular target: T1, P2X7 receptor (Homo sapiens, UniProt Q99572)
T1 construct: expressed in transfected cells; host or cells: HEK.293 cells, transient transfection with Lipofectamine LTX
T1 sequence (Q99572 1-595): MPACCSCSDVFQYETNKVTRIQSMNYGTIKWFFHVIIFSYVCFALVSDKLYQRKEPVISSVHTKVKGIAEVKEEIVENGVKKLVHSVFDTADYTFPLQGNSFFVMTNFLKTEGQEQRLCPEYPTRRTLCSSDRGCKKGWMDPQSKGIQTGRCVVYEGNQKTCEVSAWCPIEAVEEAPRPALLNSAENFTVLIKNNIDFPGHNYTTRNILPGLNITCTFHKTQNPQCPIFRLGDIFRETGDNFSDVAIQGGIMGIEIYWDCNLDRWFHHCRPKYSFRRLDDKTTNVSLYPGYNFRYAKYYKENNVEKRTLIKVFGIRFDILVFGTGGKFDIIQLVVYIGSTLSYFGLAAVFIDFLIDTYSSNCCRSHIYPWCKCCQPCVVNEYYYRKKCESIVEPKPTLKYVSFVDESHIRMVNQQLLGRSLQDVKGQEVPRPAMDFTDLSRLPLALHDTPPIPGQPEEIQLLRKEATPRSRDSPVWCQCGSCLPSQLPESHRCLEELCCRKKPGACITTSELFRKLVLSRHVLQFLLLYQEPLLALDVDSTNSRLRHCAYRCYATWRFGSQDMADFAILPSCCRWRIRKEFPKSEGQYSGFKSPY
Experiment: Pore-forming (Yo Pro-1 dye uptake) assay in P2X7 transfected HEK.293 cells, Bz-ATP agonist
Type: cell-based
Conditions: Bz-ATP 30 μM, Yo Pro-1 1 μM, triplicate
Description: A non-radioactive analogue of the Imaging Agent illustrated in Table I was screened in a P2X7 receptor functional assay. This assay is described in Example 3 and is based upon the ability of the P2X7 receptor to form a non-selective pore in P2X7 transfected HEK.293 cells upon activation with an agonist, thereby allowing dye to permeate the cells. The non selective P2X channel antagonist used as a reference inhibitor for the evaluation of the non-radioactive compound of the invention was pyridoxal-phosphate-6-azophenyl-2′,4′-disulfonate (PPADS), and the results of the assay are provided in Table I above.
The assay method used was based on the ability of the DNA binding dye, Yo Pro-1 (quinolinium, 4[3-methyl-2(3H)-benzoxazolylidene)methyl]-1-[3-(trimethyl-ammonio)propyl]-dioxide) to enter through the dilated or “large pore form” of the P2X7 receptor and to bind to intracellular DNA/RNA whereupon it increases fluorescence intensity. Yo Pro-1 was therefore used to quantify inhibition of P2X7 function. This assay was based on the methods published by Michel et al., (B.J. Pharmacol 1998; 125: 1194-1201).
Initially, HEK.293 cells were transiently transfected using LipofectamineTMLTX (Invitrogen) for 72 hrs with P2X7 cDNA. 48 hours prior to use the cells were seeded into poly-D-lysine coated 96-well black-walled, clear bottomed plates, at a density of 30,000 cells/well. Stock solutions of test compound were prepared at a concentration of 40 mM in 100% DMSO.
Following the 48 hour incubation the culture medium was removed from the transfected cells, the cells were washed once and placed in pre-warmed sucrose assay buffer (Sucrose: 280 mM, KCL 5 mM, CaCl2: 0.5 mM, glucose: 10 mM, HEPES: 10 mM, N-methyl-D-glucamine: 10 mM; pH7.4). […] The fluorescence was then read at 485 nm excitation and 530 nm emission.
The non-selective P2X channel antagonist pyrdoxalphosphate-6-azophenyl-2′4′-disulphonic acid (PPADS) was used as a reference inhibitor in the assay. […] For each compound data set, a percentage inhibition value was calculated based on the three assay points generated.

SMILES | % inhibition (test compound at 10 μM) [%] | % inhibition (test compound at 100 μM (so in the source)) [%]
Oc1ccccc1CNc1ncnn1-c1cccc(Cl)c1Cl [imaging agent 1] | 77.0 | 68.0
Cc1nc(N=Nc2ccc(S(=O)(=O)O)cc2S(=O)(=O)O)c(COP(=O)(O)O)c(C=O)c1O [PPADS, pyridoxal-phosphate-6-azophenyl-2′,4′-disulfonate, reference compound] | 70 | 
